Like-named read-outs stand apart in the source and are kept apart here.
Columns and labels:
[1] = molecular target: T1, human muscarinic M2 receptor (Homo sapiens, UniProt P08172); assay: Alphascreen Surefire phospho-ERK1/2 functional assay, M2; settings: for Emax: CHO
T1 sequence (P08172 1-466): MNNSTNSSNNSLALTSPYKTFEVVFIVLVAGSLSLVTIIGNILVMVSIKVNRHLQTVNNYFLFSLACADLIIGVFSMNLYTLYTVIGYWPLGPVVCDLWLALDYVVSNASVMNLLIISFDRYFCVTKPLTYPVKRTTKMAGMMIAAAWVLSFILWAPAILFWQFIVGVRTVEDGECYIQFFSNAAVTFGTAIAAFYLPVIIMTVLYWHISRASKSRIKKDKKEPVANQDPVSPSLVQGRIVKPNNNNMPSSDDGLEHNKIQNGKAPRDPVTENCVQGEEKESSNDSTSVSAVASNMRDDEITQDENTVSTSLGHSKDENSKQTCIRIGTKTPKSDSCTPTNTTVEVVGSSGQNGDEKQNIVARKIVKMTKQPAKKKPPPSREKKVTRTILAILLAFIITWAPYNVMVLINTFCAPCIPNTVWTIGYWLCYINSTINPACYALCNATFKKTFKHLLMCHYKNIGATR

[2] = molecular target: human muscarinic M3 receptor (Homo sapiens, UniProt P20309); assay: Alphascreen Surefire phospho-ERK1/2 functional assay, M3; settings: for Emax: CHO; for EC50: pEC50 M3, CHO cells stably expressing human M3
human muscarinic M3 receptor, sequence (P20309 whole entry): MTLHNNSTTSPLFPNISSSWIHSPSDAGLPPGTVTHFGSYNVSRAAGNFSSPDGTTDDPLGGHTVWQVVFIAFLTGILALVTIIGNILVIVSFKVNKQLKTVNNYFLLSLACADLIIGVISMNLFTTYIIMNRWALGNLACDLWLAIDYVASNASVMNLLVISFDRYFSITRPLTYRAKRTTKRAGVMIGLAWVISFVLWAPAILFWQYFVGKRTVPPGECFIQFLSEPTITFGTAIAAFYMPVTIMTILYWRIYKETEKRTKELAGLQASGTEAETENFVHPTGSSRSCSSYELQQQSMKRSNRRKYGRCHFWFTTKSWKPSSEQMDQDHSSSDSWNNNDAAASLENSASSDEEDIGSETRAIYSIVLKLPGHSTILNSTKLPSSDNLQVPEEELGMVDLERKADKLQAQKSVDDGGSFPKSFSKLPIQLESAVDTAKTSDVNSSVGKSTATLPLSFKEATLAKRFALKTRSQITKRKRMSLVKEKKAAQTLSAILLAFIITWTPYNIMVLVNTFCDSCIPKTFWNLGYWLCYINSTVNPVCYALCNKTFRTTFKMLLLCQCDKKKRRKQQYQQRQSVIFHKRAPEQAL

[3] = molecular target: T2, human muscarinic M1 receptor (Homo sapiens, UniProt P11229); assay: Alphascreen Surefire phospho-ERK1/2 functional assay, M1; type: cell-based; settings: for Emax: CHO
T2 sequence (P11229 1-460): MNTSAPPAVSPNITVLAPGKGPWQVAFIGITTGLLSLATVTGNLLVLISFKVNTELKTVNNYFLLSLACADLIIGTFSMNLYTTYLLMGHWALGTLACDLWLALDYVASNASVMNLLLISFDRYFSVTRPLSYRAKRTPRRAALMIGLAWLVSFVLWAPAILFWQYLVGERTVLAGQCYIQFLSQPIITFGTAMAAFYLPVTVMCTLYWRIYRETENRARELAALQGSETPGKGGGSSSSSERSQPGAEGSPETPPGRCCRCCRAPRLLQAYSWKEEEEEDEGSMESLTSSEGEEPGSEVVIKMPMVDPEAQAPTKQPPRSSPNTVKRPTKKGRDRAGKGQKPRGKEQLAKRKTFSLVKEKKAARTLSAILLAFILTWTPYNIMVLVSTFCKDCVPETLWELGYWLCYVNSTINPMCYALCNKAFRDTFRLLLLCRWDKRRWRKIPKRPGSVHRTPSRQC

[4] = molecular target: T3, human muscarinic M4 receptor (Homo sapiens, UniProt P08173); assay: Alphascreen Surefire phospho-ERK1/2 functional assay, M4; type: cell-based; settings: for Emax: CHO
T3 construct: expressed in transfected cells
T3 sequence (P08173 1-479): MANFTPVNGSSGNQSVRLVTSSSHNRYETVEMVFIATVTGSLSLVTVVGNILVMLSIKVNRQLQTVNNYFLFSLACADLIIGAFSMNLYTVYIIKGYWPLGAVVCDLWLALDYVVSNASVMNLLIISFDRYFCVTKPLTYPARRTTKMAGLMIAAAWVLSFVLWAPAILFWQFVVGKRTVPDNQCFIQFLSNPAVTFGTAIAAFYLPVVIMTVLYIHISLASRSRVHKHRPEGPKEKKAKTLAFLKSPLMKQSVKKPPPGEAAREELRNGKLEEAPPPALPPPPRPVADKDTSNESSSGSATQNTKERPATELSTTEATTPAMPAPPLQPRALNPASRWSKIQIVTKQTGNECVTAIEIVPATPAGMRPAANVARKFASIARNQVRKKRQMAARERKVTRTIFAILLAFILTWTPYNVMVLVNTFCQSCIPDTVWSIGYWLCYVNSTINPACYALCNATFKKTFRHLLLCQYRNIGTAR

[5] = read-out: % Emax cf. ACh, M2, CHO cells stably expressing human M2, relative to ACh
[6] = read-out: % Emax cf. ACh, M3, CHO cells stably expressing human M3, relative to ACh
[7] = phospho-ERK1/2, * = variable results
[8] = CHO cells stably expressing human M1, phospho-ERK1/2, * = variable results, read-out: pEC50 M1 (converted)
[9] = read-out: % Emax cf. ACh, M1, CHO cells stably expressing human M1, relative to ACh
[10] = CHO cells stably expressing human M4, phospho-ERK1/2, * = variable results, read-out: pEC50 M4 (converted)
[11] = read-out: % Emax cf. ACh, M4, CHO cells stably expressing human M4, relative to ACh

EC50 [1] [nM] | Emax [1, 5] [%] | Emax [2, 6] [%] | EC50 [2, 7] [nM] | EC50 [3, 8] [nM] | Emax [3, 9] [%] | EC50 [4, 10] [nM] | Emax [4, 11] [%] | Compound | other results
> 20000 | 1 | 5 | > 20000 | > 20000 | 2 | 126 | 63 | CCOC(=O)N1CCC2(CC(N3CCC(N4CCCC45CCOC5=O)CC3)C2)C1 (single isomer, unassigned) [2-96 Isomer 2, ethyl 2-[4-(6-oxo-7-oxa-1-azaspiro[4.4]non-1-yl)piperidin-1-yl]-6-azaspiro[3.4]octane-6-carboxylate] | 
> 20000 | 5 | 4 | > 20000 | 200 | 72 | 3.16 | 116 | CCOC(=O)N1CCC2(CC(N3CCC([C@@H]4CCCN4C(=O)NC)CC3)C2)C1 (single isomer, unassigned) [2-17 Isomer 2] | 
> 20000 | 1 | 11 | > 20000 | 5010 | 23 | 316 | 45 | CCOC(=O)N1CCC2(CC(N3CCC(N4CCC[C@@H]4CF)CC3)C2)C1 (single isomer, unassigned) [2-102 Isomer 2] | 
6310 | 32 | 0 | > 20000 | 251 | 102 | 25.1 | 78 | COC(=O)N1CCC2(CC(N3CCC(c4nccs4)CC3)C2)C1 (single isomer, unassigned) [1-24 Isomer 2, methyl 2-[4-(1,3-thiazol-2-yl)piperidin-1-yl]-6-azaspiro[3.4]octane-6-carboxylate] | 
> 20000 | 7 | 8 | > 20000 | 158 | 32 | 31.6 | 61 | CCOC(=O)N1CCC2(CC(N3CCC(c4ccon4)CC3)C2)C1 (single isomer, unassigned) [1-43 Isomer 2, ethyl 2-[4-(1,2-oxazol-3-yl)piperidin-1-yl]-6-azaspiro[3.4]octane-6-carboxylate] | 
> 20000 | 15 | 13 | > 20000 | 50.1 | 110 | 3.98 | 128 | CCOC(=O)N1CCC2(CC(N3CCC(c4nccs4)CC3)C2)C1 (single isomer, unassigned) [1-25 Isomer 2, ethyl 2-[4-(1,3-thiazol-2-yl)piperidin-1-yl]-6-azaspiro[3.4]octane-6-carboxylate] | 
> 20000 | 65 | 11 | > 20000 | > 20000 | 20 | 15.8 | 80 | COc1ncccc1C1CCN(C2CC3(CCN(C(=O)OCCF)C3)C2)CC1 (single isomer, unassigned) [3-5 Isomer 2, 2-fluoroethyl 2-[4-(2-methoxypyridin-3-yl)piperidin-1-yl]-6-azaspiro[3.4]octane-6-carboxylate] | 
> 20000 | 5 | 13 | > 20000 | 501 | 60 | 15.8 | 110 | CCOC(=O)N1CCC2(CC(N3CCC([C@@H]4CCCN4C(=O)NC4CC4)CC3)C2)C1 (single isomer, unassigned) [2-29 Isomer 2] | 
> 20000 | 1 | 2 | > 20000 | 316 | 66 | 25.1 | 97 | CCOC(=O)N1CCC2(CC(N3CCC(n4nccn4)CC3)C2)C1 (single isomer, unassigned) [1-61 Isomer 2, ethyl 2-[4-(2H-1,2,3-triazol-2-yl)piperidin-1-yl]-6-azaspiro[3.4]octane-6-carboxylate] | 
> 20000 | 52 | 11 | > 20000 | 2510 | 69 | 12.6 | 110 | CCOC(=O)N1CCC2(CC(N3CCC([C@@H]4CCCN4C(=O)N4CCCC4)CC3)C2)C1 (single isomer, unassigned) [2-32 Isomer 2] | 
> 20000 | 11 | 15 | > 20000 | 1000 | 85 | 126 | 128 | CCOC(=O)N1CCC2(CC(N3CCC(c4nc(C)cn4C)CC3)C2)C1 (single isomer, unassigned) [1-12 Isomer 2, ethyl 2-[4-(1,4-dimethyl-1H-imidazol-2-yl)piperidin-1-yl]-6-azaspiro[3.4]octane-6-carboxylate] | 
> 20000 | 99 | 53 | 794 | 2510 | 46 | 200 | 76 | CCOC(=O)N1CCC2(CC(N3CCC(c4nnc[nH]4)CC3)C2)C1 (single isomer, unassigned) [1-26 Isomer 2, ethyl 2-[4-(4H-1,2,4-triazol-3-yl)piperidin-1-yl]-6-azaspiro[3.4]octane-6-carboxylate] | 
 |  |  |  |  |  |  |  | CCOC(=O)N1CCC2(CC(N3CCC(C#N)(c4ccccn4)CC3)C2)C1 (single isomer, unassigned; isomer 1) [3-10 Isomer 1] | pEC50 M2 ([1]; CHO cells stably expressing human M2, phospho-ERK1/2, * = variable results): < 4.7; % Emax cf. ACh, M2 ([1]; CHO cells stably expressing human M2, relative to ACh): 3%; pEC50 M3 ([2]; CHO cells stably expressing human M3, phospho-ERK1/2, * = variable results): < 4.7; % Emax cf. ACh, M3 ([2]; CHO cells stably expressing human M3, relative to ACh): 5%; pEC50 M1 ([3]; CHO cells stably expressing human M1, phospho-ERK1/2, * = variable results): 5.9; % Emax cf. ACh, M1 ([3]; CHO cells stably expressing human M1, relative to ACh): 42%; pEC50 M4 ([4]; CHO cells stably expressing human M4, phospho-ERK1/2, * = variable results): 7.1; % Emax cf. ACh, M4 ([4]; CHO cells stably expressing human M4, relative to ACh): 71%
> 20000 | 33 | 58 | > 20000 | 3160 | 106 | 20 | 83 | CCOC(=O)N1CCC2(CC(N3CCC([C@@H]4CCCN4C(=O)N4CCC(F)(F)C4)CC3)C2)C1 (single isomer, unassigned) [2-37 Isomer 2] | 

Compound | EC50 [1] [nM] | Emax [1, 5] [%] | Emax [2, 6] [%] | EC50 [2, 7] [nM] | EC50 [3, 8] [nM] | Emax [3, 9] [%] | EC50 [4, 10] [nM] | Emax [4, 11] [%] | other results
CCOC(=O)N1CCC2(CC(N3CCC(OC)(c4ncc[nH]4)CC3)C2)C1 (single isomer, unassigned) [1-38 Isomer 2, ethyl 2-[4-(1H-imidazol-2-yl)-4-methoxypiperidin-1-yl]-6-azaspiro[3.4]octane-6-carboxylate] | > 20000 |  |  | > 20000 |  |  |  |  | Emax ([1]; read-out: % Emax cf. ACh, M2): 14%; Emax ([2]; read-out: % Emax cf. ACh, M3): 19%; Emax ([3]; read-out: % Emax cf. ACh, M1): 31%; EC50 ([3]; pEC50 M1, CHO cells stably expressing human M1, phospho-ERK1/2, * = variable results): 100 nM; Emax ([4]; read-out: % Emax cf. ACh, M4): 98%; EC50 ([4]; pEC50 M4, CHO cells stably expressing human M4, phospho-ERK1/2, * = variable results): 794 nM
